# Experimental data from patent US20240228647A1, “OFATUMUMAB FOR TREATING MULTIPLE SCLEROSIS IN ASIAN PATIENTS” (Novartis AG, priority 2021, published 2024).
# Marks after values point to notes of the source that are not given here.
# How the values were obtained:
# patients with RMS [1] = assay: Annualized relapse rate (ARR), confirmed relapses, Phase III Studies I and II; type: in vivo, human; conditions: for ARR (number of relapses/patient years) / Adjusted ARR (9559) / Number of relapses (confirmed): FAS; for ARR rate reduction (%): vs teriflunomide
# Protocol: (§1) Ofatumumab was investigated in 1882 patients with RMS from two identical Phase III randomized, double-blind, double-dummy, active-comparator controlled, parallel-group, multicenter studies of identical design (Study I and Study II). Patients were randomized to receive either ofatumumab, OMB (20 mg s.c injections every 4 weeks, after an initial loading regimen of 3 injections on Day 1, 7, and 14), or teriflunomide, TER (14 mg p.o. once a day) as active comparator. For brevity, the teriflunomide data are not shown hereinafter.
# (§2) The maximum treatment duration for an individual patient was 30 study months (approximately 2.5 years). The two studies included a total of 71 patients of Asian race (36 patients in ofatumumab and 35 patients in teriflunomide treatment groups). This Example also includes the Asian patients data from oncology studies (Study A and Study B), as supportive data, where required.
# ARR was the primary efficacy endpoint in the pivotal Phase III studies. Treatment with ofatumumab and teriflunomide were both associated with relatively low ARRs. in the Asian subgroups, with 4 to 5 confirmed relapses in any of the treatment groups (ARRs of 0.08-0.09) (Table 2).
# patients with RMS [2] = assay: Time to confirmed disability worsening (3mCDW, 6mCDW), Phase III Studies I and II; type: in vivo, human; conditions: for 3mCDW event rate n/N (%) / 3mCDW events n / 6mCDW event rate n/N (%) / 6mCDW events n: FAS
# Protocol: as §1, §2
# Time to 3 mCDW and 6 mCDW were key secondary efficacy endpoints in the pivotal Phase III studies.
# patients with RMS [3] = assay: Gd-enhancing T1 lesions per scan, Phase III Studies I and II; type: in vivo, human; conditions: for Gd-enhancing T1 lesions rate reduction (%): vs teriflunomide
# Protocol: as §1, §2
# The number of Gd-enhancing T1 lesions per scan was a key secondary efficacy endpoint in the pivotal Phase III studies.
# serum IgG and IgM levels = assay: Serum IgG and IgM levels under long-term ofatumumab treatment; type: in vivo, human
# Protocol: Serum immunoglobulin (Ig) levels can be determined routinely in clinical practice. In the present application serum Ig levels can preferably be determined by immunoturbidimetry. Preferably a Roche cobas® Analyzer was used, especially module c of the cobas® analyser. In a preferred embodiment Ig levels can be determined by using a cobas® c 311 analyzer. It is further preferred that IgG measurements are carried out as described in the cobas® leaflet “IGG-2 Tina-quant IgG Gen.2”, preferably version 11.0 dated 2016-02 and IgM measurements as described in the leaflet “IGM-2 Tina-quant IgM Gen.2”, preferably version 13.0 dated 2018-11.
# Serum samples were preferably kept at 2-8° C. before measurement.
# Patients were subjected to a long term treatment. Patients received ofatumumab 20 mg sc injections every 4 weeks (after an initial loading regimen of 20 mg sc doses on weeks 0, 1 and 2).
# patients with RMS [4] = assay: Phase II study, Japan and non-Japan subgroups of patients with RMS; type: in vivo, human
# [5] = Pharmacokinetics of ofatumumab in patients (ethnic comparison, half-life); conditions: 2000 mg intravenous infusion, refractory CLL
substance,measurement,setting,value
ofatumumab [OMB],ARR (number of relapses/patient years),patients with RMS [1]; Asian (race),(0.084)
same,Adjusted ARR (9559),patients with RMS [1]; Asian (race),"0.08 (0.03, 0.24)"
same,Number of relapses (confirmed),patients with RMS [1]; Asian (race),4/47
same,ARR (number of relapses/patient years),patients with RMS [1]; Rest of World (race),(0.122)
same,Adjusted ARR (9559),patients with RMS [1]; Rest of World (race),"0.12 (0.10, 0.14)"
same,Number of relapses (confirmed),patients with RMS [1]; Rest of World (race),181/1490
same,Reduction of adjusted ARR compared with teriflunomide,patients with RMS [1]; overall population,52.6%
same,ARR rate reduction (%),patients with RMS [1]; Asian (race),11.8/0.862%
same,ARR rate reduction (%),patients with RMS [1]; Rest of World (race),53.3/<0.001* %
same,ARR rate reduction (%),"patients with RMS [1]; Rest of World (race), listed as ofatumumab",53.3%
same,3mCDW event rate n/N (%),patients with RMS [2]; Asian (race),(8.3) %
same,3mCDW events n,patients with RMS [2]; Asian (race),3/36
same,6mCDW event rate n/N (%),patients with RMS [2]; Asian (race),(8.3) %
same,6mCDW events n,patients with RMS [2]; Asian (race),3/36
same,3mCDW event rate n/N (%),patients with RMS [2]; Rest of World (race),(9.3) %
same,3mCDW events n,patients with RMS [2]; Rest of World (race),85/910
same,6mCDW event rate n/N (%),patients with RMS [2]; Rest of World (race),(7.5) %
same,6mCDW events n,patients with RMS [2]; Rest of World (race),68/910
same,3mCDW risk reduction compared with teriflunomide,patients with RMS [2]; overall population,33.0%
same,6mCDW risk reduction compared with teriflunomide,patients with RMS [2]; overall population,31.0%
same,Gd-enhancing lesions/number of scans (lesion rate),patients with RMS [3]; Asian,(0.019)
same,Number of Gd-enhancing lesions,patients with RMS [3]; Asian,1/54
same,Gd-enhancing lesions/number of scans (lesion rate),patients with RMS [3]; Rest of World,(0.031)
same,Number of Gd-enhancing lesions,patients with RMS [3]; Rest of World,51/1666
same,Reduction of mean number of Gd-enhancing T1 lesions per scan compared with teriflunomide,patients with RMS [3]; overall population,95.8%
same,Gd-enhancing T1 lesions rate reduction (%),patients with RMS [3]; Asian,93.8/0.022* %
same,Gd-enhancing T1 lesions rate reduction (%),patients with RMS [3]; Rest of World,95.9/<0.001* %
same,IgM levels with longer duration,"serum IgG and IgM levels; 20 mg sc every 4 weeks, FIGS. 3 and 4",A reduction in IgM levels
same,IgG levels over the long-term follow-up,"serum IgG and IgM levels; 20 mg sc every 4 weeks, follow-up of >4 years, FIG. 1",stable
same,IgM levels versus lower limit of normal,"serum IgG and IgM levels; 20 mg sc every 4 weeks, longer duration, FIGS. 3 and 4",levels remained above the lower limit of normal
same,Increase of IgG levels,"serum IgG and IgM levels; after two years (96 weeks), FIG. 6",about 3%
same,Depletion of CD19+ B-cells and CD3+CD20+ T-cells,patients with RMS [4],rapid and consistent depletion
same,Efficacy vs. placebo in lesion suppression,patients with RMS [4]; Phase II study,superior efficacy
same,"PK parameters (Cmax, AUC, T1/2) in Asian vs. White patients",[5],Comparable PK parameters
